Data on 16 molecules can be found in PMC9782510, “Natural Antioxidants, Tyrosinase and Acetylcholinesterase Inhibitors from Cercis glabra Leaves” (Molecules, 2022).

Bounds are passed on as bounds.

Test [1] in a line: PTIO radical scavenging assay. The protocol: The PTIO radical scavenging activity was assayed by referring to relevant methods. Briefly, PTIO radical solid (3 mg) was dissolved in 20 mL of methanol, and sample solution and PTIO methanol solution (40 µL:160 µL) were added to a 96-well microplate. The absorbance was determined at 585 nm using a microplate reader after 30 min of incubation and the scavenging rate was calculated on the basis of Equation (2). (2) PTIO radical scavenging activity (%) =[1−AS/AC]×100 where AS is the absorbance of the compounds to be tested and AC is the absorbance of the untreated control.

For the next test, the system named is mushroom tyrosinase. Kind of test: Mushroom tyrosinase inhibitory activity (L-tyrosine substrate). Type of test: biochemical. As to conditions: for Tyrosinase Inhibition (%): at initial concentration of 1 mg/mL, means ± SEMs; for IC50: read-out: Tyrosinase inhibition IC50.
The target in test [2] is Acetylcholinesterase (AChE) (Electrophorus electricus, UniProt O42275). In words: Acetylcholinesterase inhibitory activity (ATCI/DTNB). Conditions: for inhibition at 1000 µg/mL: read-out: Acetylcholinesterase Inhibition (%). In kind it is biochemical.
Experimental: The experiment of acetylcholinesterase inhibition activity was slightly modified according to the literature [55]. Acetylcholinesterase (AChE) and acetylthiocholine iodide (ATCI) were dissolved in 0.1 M phosphate buffer (pH 8.0). 5,5′-Dithiobis-(2-nitrobenzoic acid) (DTNB) was prepared in 10 mL of 0.1 M phosphate buffer (pH 7.0) with a small amount of NaHCO3. A total of 120 µL of 0.1 M phosphate buffer (pH 8.0), 20 µL of 3 mM DTNB solution, 20 µL of sample solution and 20 µL of AChE (0.2 U/mL) were sequentially added to the 96-well microplate, and the mixture reacted for 10 min at 37 °C. The reaction was started by adding 20 µL of 3 mM ATCI and the mixture was incubated at 37 °C for 20 min. Donepezil was chosen as the positive control. […] (4) Acetylcholinesterase inhibition activity (%) =[1−(AS–Aj)/AC]×100 where As and Aj are the absorbance of the compound to be tested and tested compound blanks, respectively, and AC is the absorbance of the untreated control.
Test [3] can be described thus: ABTS radical scavenging assay. How it is done:
The ABTS radical scavenging assay was modified according to the method with slight modifications. Briefly, the ABTS radical cation was obtained by mixing ABTS diammonium salt stock solution (7.4 mM) with potassium persulfate (2.6 mM) in equal proportion and reacting it at 37 °C in darkness for 12–16 h. Before used, the absorbance of light green ABTS radical test solution at 745 nm was controlled to be 0.70 ± 0.02 by diluting with methanol. Sample solution and ABTS methanol solution (10 µL:190 µL) were added to 96-well microplate, and L-ascorbic acid was the positive control. After incubation at 37 °C for 10 min, the absorbance was tested at 745 nm using a microplate reader. Scavenging rate was calculated according to Equation (1). (1) ABTS radical scavenging activity (%) =AC–AS/AC×100 where AC and AS are the absorbance of the blank control and the compounds to be tested, respectively.

Test [4] is described as follows: DPPH radical scavenging assay. The protocol:
The scavenging ability on DPPH radical was conducted based on the method with some modifications. The sample solution and DPPH methanol solution (20 µL:180 µL) were added to a 96-well microplate. L-ascorbic acid was the positive control. The absorbance at 517 nm was measured using a microplate reader after the solution had stood for 30 min at 37 °C under dark conditions. The calculation formula of DPPH radical scavenging activity is consistent with the formula of ABTS radical scavenging activity.
For orientation: The DPPH test is a chemical assay of radical scavenging.

One may read the IC50 as the concentration that inhibits the measured activity by half. Usually inhibition stands for the percentage by which the read-out fell short of the control.

Sequence of Acetylcholinesterase (AChE) (O42275 24-633): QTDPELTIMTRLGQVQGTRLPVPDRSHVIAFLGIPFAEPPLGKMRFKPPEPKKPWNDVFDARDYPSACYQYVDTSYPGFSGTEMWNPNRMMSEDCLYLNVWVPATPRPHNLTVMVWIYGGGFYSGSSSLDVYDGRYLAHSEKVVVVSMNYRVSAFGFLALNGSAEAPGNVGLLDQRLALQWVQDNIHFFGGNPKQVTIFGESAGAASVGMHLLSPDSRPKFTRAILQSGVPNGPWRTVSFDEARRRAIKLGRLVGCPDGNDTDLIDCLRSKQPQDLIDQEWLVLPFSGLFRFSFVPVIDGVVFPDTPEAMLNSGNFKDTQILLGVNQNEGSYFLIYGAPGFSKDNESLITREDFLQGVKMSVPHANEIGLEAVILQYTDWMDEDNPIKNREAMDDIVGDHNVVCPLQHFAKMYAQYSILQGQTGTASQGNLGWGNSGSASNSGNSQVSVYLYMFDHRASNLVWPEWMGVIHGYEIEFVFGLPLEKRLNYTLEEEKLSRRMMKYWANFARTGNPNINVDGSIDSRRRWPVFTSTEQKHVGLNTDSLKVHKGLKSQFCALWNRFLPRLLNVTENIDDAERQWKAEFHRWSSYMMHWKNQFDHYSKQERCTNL
Experimental for mushroom tyrosinase: Mushroom tyrosinase (400 U/mL) and L-tyrosine (3 mM) were added separately in 0.05 M potassium phosphate buffer (pH 6.5). A total of 80 µL of potassium phosphate buffer (pH 6.5), 80 µL of L-tyrosine (3 mM) solution, 20 µL of sample solution and 20 µL of mushroom tyrosinase (400 U/mL) were added to a 96-well microplate. The mixture reacted for 1 h at 37 °C. […] The absorbance was measured at 490 nm using a microplate reader and Equation (3) was used to calculate the inhibition rate. (3) Tyrosinase inhibition activity (%) =AC–AS/AC×100
Equation (3) is the absorbance of the test compound and AC is the absorbance of the untreated control.

In the case of `COC(=O)C[C@H]1CCC(=O)[C@H]1C/C=C\CCO[C@@H]1O[C@H](CO)[C@@H](O)[C@H](O)[C@H]1O` [Compound 14, methyl-β-D-glucopyranosyl tuberonate], the results for the IC50 in test [1], in test [3] and in test [4] were above 100000 µM, above 500 µM and above 100000 µM, respectively. In the test with mushroom tyrosinase, the “Tyrosinase Inhibition (%)” value was found to be 37.71 ± 0.56%. The inhibition at 1000 µg/mL in test [2] was 47.18 ± 0.16%.
In the case of `O=c1c(O)c(-c2ccc(O)c(O)c2)oc2cc(O)cc(O)c12` [Compound 5, quercetin], the IC50 in test [1] is 6360 µM; in test [3], 97 µM; in test [4], 590 µM. In the test with mushroom tyrosinase, the “Tyrosinase Inhibition (%)” value amounted to 77.29 ± 1.52%. The inhibition at 1000 µg/mL in test [2] is 83.65 ± 0.48%.
As for `C[C@@H]1O[C@@H](Oc2c(-c3ccc(O)c(O)c3)oc3cc(O)cc(O)c3c2=O)[C@H](O)[C@H](O)[C@H]1O` [Compound 8, quercitrin], the IC50 was above 100000 µM in test [1], 4960 µM on mushroom tyrosinase, above 500 µM in test [3] and 6560 µM in test [4]. The “Tyrosinase Inhibition (%)” value in the test with mushroom tyrosinase was found to be 39.17 ± 0.86%. For the same molecule, the inhibition at 1000 µg/mL in test [2] was 40.11 ± 0.31%.
For the molecule `CC(=O)CCc1ccc(O[C@@H]2O[C@H](CO)[C@@H](O)[C@H](O)[C@H]2O)cc1` [Compound 12, 4-(4′-Hydroxyphenyl)-2-butanone-4′-O-β-D-glucopyranoside], the IC50 in test [1] was above 100000 µM; on mushroom tyrosinase, 7470 µM; in test [3] it was above 500 µM; in test [4], 34900 µM. In the test with mushroom tyrosinase, the “Tyrosinase Inhibition (%)” value turned out to be 35.63 ± 1.01%. Moreover, in test [2], the inhibition at 1000 µg/mL was found to be 39.8 ± 0.53%.
`O=c1c(O)c(-c2cc(O)c(O)c(O)c2)oc2cc(O)cc(O)c12` [Compound 3, myricetin]: the half-inhibitory concentration (IC50) in test [1] is 2560 µM; on mushroom tyrosinase it was 1390 µM; in test [3], 94 µM; in test [4], 870 µM. Moreover, the “Tyrosinase Inhibition (%)” value with mushroom tyrosinase amounted to 60.00 ± 1.49%. The inhibition at 1000 µg/mL in test [2] amounted to 85.27 ± 0.06%.
For `COc1cc(-c2oc3cc(O)cc(O)c3c(=O)c2O)ccc1O` [Compound 4, isorhamnetin], the concentration for half-maximal inhibition (IC50) is 44300 µM in test [1], 4690 µM on mushroom tyrosinase, above 500 µM in test [3] and 6250 µM in test [4]. The “Tyrosinase Inhibition (%)” value in the test on mushroom tyrosinase came out at 44.17 ± 0.85%. In addition, in test [2], the inhibition at 1000 µg/mL was determined as 68.13 ± 0.24%.
Regarding `CC[C@H](CC[C@@H](C)[C@H]1CC[C@H]2[C@@H]3CC=C4C[C@@H](O[C@@H]5O[C@H](CO)[C@@H](O)[C@H](O)[C@H]5O)CC[C@]4(C)[C@H]3CC[C@]12C)C(C)C` [Compound 11], the IC50 was above 100000 µM in test [1], 8840 µM on mushroom tyrosinase, above 500 µM in test [3] and above 100000 µM in test [4]. In the test on mushroom tyrosinase, the “Tyrosinase Inhibition (%)” value came to 29.79 ± 0.88%. Also, the inhibition at 1000 µg/mL in test [2] turned out to be 40.8 ± 0.41%.
With `O=c1c(O)c(-c2ccc(O)cc2)oc2cc(O)cc(O)c12` [Compound 6, kaempferol], the IC50 in test [1] came out at 14700 µM; on mushroom tyrosinase, 1690 µM; in test [3] it was 108 µM; in test [4], 590 µM. The “Tyrosinase Inhibition (%)” value with mushroom tyrosinase was determined as 57.50 ± 0.82%. Moreover, the inhibition at 1000 µg/mL in test [2] came to 82.21 ± 0.09%.
Consider `O=C1c2c(O[C@@H]3O[C@H](CO)[C@@H](O)[C@H](O)[C@H]3O)cc(O)cc2OC1(O)Cc1ccc(O)cc1` (stereo partly drawn) [Compound 15, hovetrichoside C], for which the IC50 was above 100000 µM in test [1], 4040 µM on mushroom tyrosinase, above 500 µM in test [3] and above 100000 µM in test [4]. Besides, the “Tyrosinase Inhibition (%)” value in the test on mushroom tyrosinase is given as 42.08 ± 0.54%. Further, in test [2], the inhibition at 1000 µg/mL was 39.91 ± 0.36%.
With `O=C1O[C@H]([C@@H](O)CO)C(O)=C1O` [L-ascorbic acid, reference compound], the values for the IC50 in test [1], in test [3] and in test [4] were 1610 µM, 156 µM and 440 µM, respectively.
Consider `O=C(O)c1cc(O)c(O)c(O)c1` [Compound 13, gallic acid], for which the IC50 in test [1] is above 100000 µM; at mushroom tyrosinase it was 590 µM; in test [3], 179 µM; in test [4], 770 µM. Also, in the test on mushroom tyrosinase, the “Tyrosinase Inhibition (%)” value came to 80.00 ± 0.78%. Besides, the inhibition at 1000 µg/mL in test [2] came out at 71.74 ± 0.4%.
`C[C@@H]1O[C@@H](Oc2c(-c3cc(O)c(O)c(O)c3)oc3cc(Oc4cc(O)c5c(=O)c(O[C@@H]6O[C@@H](C)[C@H](O)[C@@H](O)[C@H]6O)c(-c6cc(O)c(O)c(O)c6)oc5c4)cc(O)c3c2=O)[C@H](O)[C@H](O)[C@H]1O` [Compound 10, myricetin-3-O-rhamnoside-(C7-I-O-C7-II)-myricetin-3-O-rhamnoside]: the IC50 in test [1] stood at 530 µM; on mushroom tyrosinase, 650 µM; in test [3] it was 45 µM; in test [4], 560 µM. The “Tyrosinase Inhibition (%)” value in the test with mushroom tyrosinase is recorded as 66.04 ± 0.62%. Further, in test [2], the inhibition at 1000 µg/mL is 61.3 ± 0.38%.
Regarding `C[C@@H]1O[C@@H](Oc2c(-c3ccc(O)cc3)oc3cc(O)cc(O)c3c2=O)[C@H](O)[C@H](O)[C@H]1O` [Compound 7, afzelin], the IC50 was above 100000 µM in test [1], 9240 µM at mushroom tyrosinase, above 500 µM in test [3] and above 100000 µM in test [4]. Moreover, the “Tyrosinase Inhibition (%)” value in the test with mushroom tyrosinase was determined as 32.71 ± 1.51%.
For the molecule kaempferol-3-O-rutinoside [Compound 9], the IC50 in test [1] was 27600 µM; in test [2] (read-out: Acetylcholinesterase inhibition IC50), above 1000 µM; in test [3], above 500 µM; in test [4] it was above 100000 µM. Moreover, in the test with mushroom tyrosinase, the “Tyrosinase Inhibition (%)” value is given as 23.54 ± 1.04%. The “Acetylcholinesterase Inhibition (%)” value in test [2] (at initial concentration of 1 mg/mL, means ± SEMs) is on record as 39.90 ± 0.33%.
Turning to `COC(=O)[C@H](O)[C@@H](OC(=O)/C=C/c1ccc(O)cc1)C(=O)O` [Compound 2, (2′R, 3′R)-trans-4-coumaroyl-4′-methoxyl-tartaric acid], the IC50 is above 100000 µM in test [1], 2590 µM on mushroom tyrosinase, above 500 µM in test [3] and above 100000 µM in test [4]. Further, the “Tyrosinase Inhibition (%)” value with mushroom tyrosinase came out at 53.54 ± 0.90%. Also, the inhibition at 1000 µg/mL in test [2] is 39.46 ± 0.25%.
On to `COC(=O)[C@@H](O)[C@H](OC(=O)/C=C/c1ccc(O)cc1)C(=O)OC` [Compound 1, (2′S, 3′S)-trans-4-coumaroyltartaric acid dimethyl ester], for which the IC50 in test [1] was above 100000 µM; on mushroom tyrosinase, 2630 µM; in test [3], above 500 µM; in test [4], above 100000 µM. Besides, the “Tyrosinase Inhibition (%)” value in the test with mushroom tyrosinase is 53.13 ± 0.65%. In addition, the inhibition at 1000 µg/mL in test [2] stood at 38.43 ± 0.2%.
